Measurements: ChEMBL document CHEMBL3991601, “The target landscape of clinical kinase drugs” (Science, 2017)
Calls of active or inactive are those of the source. For most assays here, no stated cut-off is given here; in the data, actives have a measured Kd and inactives only a lower limit.

What was measured:
[1] = target: T1, Delta(24)-sterol reductase (Homo sapiens, UniProt Q15392)
T1 sequence (Q15392 whole entry): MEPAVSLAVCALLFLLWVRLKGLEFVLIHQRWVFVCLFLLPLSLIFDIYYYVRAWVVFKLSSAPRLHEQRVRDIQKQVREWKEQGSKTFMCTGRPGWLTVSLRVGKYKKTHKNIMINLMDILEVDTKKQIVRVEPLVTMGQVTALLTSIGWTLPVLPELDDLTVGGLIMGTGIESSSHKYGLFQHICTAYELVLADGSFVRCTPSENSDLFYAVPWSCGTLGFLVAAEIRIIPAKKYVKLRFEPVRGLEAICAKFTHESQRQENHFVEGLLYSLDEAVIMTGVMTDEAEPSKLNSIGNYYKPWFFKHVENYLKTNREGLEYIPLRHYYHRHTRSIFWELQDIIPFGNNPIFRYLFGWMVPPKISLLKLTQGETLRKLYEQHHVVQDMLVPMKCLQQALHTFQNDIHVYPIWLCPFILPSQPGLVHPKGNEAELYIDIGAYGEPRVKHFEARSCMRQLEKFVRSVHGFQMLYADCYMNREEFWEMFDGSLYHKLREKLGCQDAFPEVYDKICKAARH

Ephrin type-B receptor 6 = target: T2, Ephrin type-B receptor 6 (Homo sapiens, UniProt O15197)
T2 sequence (O15197 whole entry): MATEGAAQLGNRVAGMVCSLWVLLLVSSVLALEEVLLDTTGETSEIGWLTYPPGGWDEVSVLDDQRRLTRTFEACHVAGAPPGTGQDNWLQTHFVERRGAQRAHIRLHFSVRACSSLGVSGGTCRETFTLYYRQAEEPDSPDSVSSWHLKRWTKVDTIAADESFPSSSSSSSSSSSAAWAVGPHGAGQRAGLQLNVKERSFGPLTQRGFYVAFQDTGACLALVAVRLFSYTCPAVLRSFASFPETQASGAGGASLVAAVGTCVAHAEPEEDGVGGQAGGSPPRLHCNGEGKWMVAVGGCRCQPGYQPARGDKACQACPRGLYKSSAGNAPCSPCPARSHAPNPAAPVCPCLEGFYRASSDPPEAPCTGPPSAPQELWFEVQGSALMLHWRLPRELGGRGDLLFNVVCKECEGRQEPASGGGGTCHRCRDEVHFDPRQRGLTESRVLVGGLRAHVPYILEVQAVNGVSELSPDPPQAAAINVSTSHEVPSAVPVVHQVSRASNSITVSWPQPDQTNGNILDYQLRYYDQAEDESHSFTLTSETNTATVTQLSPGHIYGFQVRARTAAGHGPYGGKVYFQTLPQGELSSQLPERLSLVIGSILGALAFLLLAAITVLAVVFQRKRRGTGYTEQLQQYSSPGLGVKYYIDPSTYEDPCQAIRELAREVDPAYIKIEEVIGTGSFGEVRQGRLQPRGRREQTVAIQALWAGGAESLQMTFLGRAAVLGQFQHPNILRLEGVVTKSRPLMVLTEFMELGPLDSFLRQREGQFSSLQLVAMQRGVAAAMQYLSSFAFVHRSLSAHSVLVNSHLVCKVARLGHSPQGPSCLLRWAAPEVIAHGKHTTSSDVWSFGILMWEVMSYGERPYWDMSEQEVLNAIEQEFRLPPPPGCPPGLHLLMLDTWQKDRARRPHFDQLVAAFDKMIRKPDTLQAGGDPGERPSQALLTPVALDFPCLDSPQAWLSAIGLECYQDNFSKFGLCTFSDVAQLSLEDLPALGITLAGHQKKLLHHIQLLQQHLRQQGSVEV

[2] = target: Tyrosine-protein kinase HCK (Homo sapiens, UniProt P08631)
[3] = target: Ribosomal protein S6 kinase alpha-3 (Homo sapiens, UniProt P51812)
[4] = target: Ribosomal protein S6 kinase alpha-6 (Homo sapiens, UniProt Q9UK32)
[5] = target: Serine/threonine-protein kinase SIK2 (Homo sapiens, UniProt Q9H0K1)
[6] = target: Non-receptor tyrosine-protein kinase TYK2 (Homo sapiens, UniProt P29597)
[7] = target: T3, Electron transfer flavoprotein subunit beta (Homo sapiens, UniProt P38117)
T3 sequence (P38117 whole entry): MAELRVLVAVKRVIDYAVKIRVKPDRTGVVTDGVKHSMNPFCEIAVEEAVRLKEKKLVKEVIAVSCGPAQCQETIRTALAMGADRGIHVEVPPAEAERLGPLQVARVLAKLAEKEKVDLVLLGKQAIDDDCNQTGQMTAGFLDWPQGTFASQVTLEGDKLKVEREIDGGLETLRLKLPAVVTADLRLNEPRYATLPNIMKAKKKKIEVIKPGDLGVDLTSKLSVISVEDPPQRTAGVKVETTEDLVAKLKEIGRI

Serine/threonine-protein kinase SIK2, sequence (Q9H0K1 whole entry): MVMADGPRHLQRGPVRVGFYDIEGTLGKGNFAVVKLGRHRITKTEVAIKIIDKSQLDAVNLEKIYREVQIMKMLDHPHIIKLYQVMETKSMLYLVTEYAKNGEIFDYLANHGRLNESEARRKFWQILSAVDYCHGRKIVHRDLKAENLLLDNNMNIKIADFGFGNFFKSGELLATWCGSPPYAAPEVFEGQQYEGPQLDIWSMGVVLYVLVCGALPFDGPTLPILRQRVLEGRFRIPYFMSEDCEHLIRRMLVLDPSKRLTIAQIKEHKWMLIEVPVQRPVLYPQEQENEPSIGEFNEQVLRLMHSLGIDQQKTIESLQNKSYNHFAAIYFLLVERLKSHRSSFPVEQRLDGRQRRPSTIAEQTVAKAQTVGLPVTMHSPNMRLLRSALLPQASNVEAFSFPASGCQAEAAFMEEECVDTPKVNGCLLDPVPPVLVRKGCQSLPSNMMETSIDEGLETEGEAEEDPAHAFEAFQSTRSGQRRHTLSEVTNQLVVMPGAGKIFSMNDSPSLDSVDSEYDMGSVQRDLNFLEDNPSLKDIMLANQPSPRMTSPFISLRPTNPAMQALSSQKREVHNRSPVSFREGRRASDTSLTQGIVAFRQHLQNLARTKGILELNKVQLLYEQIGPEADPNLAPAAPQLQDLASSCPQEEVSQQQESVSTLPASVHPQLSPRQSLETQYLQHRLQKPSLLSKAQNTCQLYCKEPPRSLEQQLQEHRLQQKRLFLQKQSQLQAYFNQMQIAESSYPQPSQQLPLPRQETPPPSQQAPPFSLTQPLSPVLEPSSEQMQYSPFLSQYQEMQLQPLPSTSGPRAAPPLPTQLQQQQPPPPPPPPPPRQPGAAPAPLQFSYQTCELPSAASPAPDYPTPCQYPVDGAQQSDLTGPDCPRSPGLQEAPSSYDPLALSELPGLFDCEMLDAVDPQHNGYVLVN
Tyrosine-protein kinase HCK, sequence (P08631 whole entry): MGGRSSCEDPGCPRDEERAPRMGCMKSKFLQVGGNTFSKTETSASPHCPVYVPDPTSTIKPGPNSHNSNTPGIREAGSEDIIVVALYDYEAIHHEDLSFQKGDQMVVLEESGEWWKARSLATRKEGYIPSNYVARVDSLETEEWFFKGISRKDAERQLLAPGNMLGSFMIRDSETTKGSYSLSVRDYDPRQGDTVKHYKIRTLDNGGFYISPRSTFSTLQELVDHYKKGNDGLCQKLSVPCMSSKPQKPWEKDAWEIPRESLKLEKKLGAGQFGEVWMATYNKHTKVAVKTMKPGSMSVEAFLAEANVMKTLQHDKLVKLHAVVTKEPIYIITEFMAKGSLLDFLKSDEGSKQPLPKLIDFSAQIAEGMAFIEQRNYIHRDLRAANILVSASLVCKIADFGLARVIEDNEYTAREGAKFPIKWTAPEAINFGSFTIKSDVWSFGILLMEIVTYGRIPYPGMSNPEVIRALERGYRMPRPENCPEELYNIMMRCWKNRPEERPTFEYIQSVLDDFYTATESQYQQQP
Ribosomal protein S6 kinase alpha-6, sequence (Q9UK32 whole entry): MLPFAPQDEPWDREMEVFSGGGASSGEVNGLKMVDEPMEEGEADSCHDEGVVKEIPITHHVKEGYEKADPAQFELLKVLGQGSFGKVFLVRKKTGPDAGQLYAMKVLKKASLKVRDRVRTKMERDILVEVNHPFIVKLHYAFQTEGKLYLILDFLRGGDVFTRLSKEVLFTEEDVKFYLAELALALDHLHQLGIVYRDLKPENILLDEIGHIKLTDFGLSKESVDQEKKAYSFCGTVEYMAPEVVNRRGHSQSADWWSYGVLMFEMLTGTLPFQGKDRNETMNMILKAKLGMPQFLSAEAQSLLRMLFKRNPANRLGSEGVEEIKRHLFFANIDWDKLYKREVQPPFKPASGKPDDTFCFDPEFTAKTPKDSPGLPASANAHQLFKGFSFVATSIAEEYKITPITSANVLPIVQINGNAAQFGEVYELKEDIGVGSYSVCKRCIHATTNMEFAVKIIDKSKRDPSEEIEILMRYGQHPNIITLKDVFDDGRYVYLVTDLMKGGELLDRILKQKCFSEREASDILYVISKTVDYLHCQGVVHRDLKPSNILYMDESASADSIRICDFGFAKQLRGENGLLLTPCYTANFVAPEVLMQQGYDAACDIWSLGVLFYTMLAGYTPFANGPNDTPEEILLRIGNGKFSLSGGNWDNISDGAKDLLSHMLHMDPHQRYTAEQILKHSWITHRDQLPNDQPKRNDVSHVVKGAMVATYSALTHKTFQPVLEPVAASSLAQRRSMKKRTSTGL
Non-receptor tyrosine-protein kinase TYK2, sequence (P29597 whole entry): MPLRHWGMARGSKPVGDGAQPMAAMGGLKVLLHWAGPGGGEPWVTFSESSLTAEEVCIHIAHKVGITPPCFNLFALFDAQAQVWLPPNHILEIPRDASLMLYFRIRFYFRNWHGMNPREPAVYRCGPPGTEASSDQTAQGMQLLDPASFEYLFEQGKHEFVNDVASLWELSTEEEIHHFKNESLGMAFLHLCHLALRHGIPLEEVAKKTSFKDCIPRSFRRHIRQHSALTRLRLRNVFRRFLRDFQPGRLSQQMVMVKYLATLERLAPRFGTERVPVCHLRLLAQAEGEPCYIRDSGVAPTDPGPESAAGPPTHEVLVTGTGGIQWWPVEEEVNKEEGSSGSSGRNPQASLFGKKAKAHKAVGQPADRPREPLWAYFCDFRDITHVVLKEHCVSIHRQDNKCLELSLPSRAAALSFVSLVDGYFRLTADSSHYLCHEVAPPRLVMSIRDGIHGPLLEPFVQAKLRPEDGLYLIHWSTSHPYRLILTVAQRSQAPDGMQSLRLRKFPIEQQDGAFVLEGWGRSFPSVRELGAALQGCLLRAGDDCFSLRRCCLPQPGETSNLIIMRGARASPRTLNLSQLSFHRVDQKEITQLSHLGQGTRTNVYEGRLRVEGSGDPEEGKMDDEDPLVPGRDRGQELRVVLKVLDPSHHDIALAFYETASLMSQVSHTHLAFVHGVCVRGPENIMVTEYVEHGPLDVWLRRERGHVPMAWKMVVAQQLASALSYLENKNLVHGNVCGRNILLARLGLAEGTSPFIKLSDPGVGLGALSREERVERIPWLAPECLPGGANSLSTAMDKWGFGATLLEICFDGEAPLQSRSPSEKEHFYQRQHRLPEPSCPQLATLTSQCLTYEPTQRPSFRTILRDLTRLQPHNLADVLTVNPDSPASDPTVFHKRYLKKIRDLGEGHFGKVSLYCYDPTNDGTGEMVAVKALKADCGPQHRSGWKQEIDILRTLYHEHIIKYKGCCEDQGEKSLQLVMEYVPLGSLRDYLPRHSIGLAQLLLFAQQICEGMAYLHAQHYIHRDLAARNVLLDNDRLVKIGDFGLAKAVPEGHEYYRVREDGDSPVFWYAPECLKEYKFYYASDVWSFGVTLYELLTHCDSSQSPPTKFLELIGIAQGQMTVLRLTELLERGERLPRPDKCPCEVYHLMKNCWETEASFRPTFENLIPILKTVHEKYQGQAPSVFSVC
Ribosomal protein S6 kinase alpha-3, sequence (P51812 whole entry): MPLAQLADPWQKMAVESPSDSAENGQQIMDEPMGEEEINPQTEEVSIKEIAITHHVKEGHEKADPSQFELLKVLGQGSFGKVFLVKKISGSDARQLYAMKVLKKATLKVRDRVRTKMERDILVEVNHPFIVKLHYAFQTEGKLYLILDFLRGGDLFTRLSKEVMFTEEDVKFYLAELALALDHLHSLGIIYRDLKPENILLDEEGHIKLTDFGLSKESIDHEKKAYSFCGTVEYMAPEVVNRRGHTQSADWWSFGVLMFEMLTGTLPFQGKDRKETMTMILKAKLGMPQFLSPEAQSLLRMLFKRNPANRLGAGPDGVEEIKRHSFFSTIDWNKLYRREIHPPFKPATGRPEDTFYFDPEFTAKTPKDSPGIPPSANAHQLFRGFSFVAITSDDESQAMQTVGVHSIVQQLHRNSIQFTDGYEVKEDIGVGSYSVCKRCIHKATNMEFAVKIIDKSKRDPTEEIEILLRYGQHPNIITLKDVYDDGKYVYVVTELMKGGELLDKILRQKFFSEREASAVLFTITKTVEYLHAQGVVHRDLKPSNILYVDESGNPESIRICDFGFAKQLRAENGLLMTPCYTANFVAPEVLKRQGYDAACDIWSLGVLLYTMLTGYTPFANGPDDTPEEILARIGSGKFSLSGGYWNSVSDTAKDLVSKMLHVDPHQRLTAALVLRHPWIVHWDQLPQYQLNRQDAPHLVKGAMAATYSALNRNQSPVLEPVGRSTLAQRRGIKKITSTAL

Row | Kd [1] | Kd (Ephrin type-B receptor 6) | Kd [2] | Kd [3] | Kd [4] | Kd [5] | Kd [6] | Kd [7] | Compound
1 | > 30 µM (inactive) | – | – | – | – | – | – | > 30 µM (inactive) | COc1cc2c(N3CCN(C(=O)Nc4ccc(OC(C)C)cc4)CC3)ncnc2cc1OCCCN1CCCCC1 [TANDUTINIB]
2 | > 30 µM (inactive) | > 30 µM (inactive) | > 30 µM (inactive) | > 30 µM (inactive) | > 30 µM (inactive) | > 30 µM (inactive) | > 30 µM (inactive) | – | FC(F)(F)c1ccc(CNc2ccc(Cc3c[nH]c4ncc(Cl)cc34)cn2)cn1 [PEXIDARTINIB]
3 | > 30 µM (inactive) | > 30 µM (inactive) | > 30 µM (inactive) | > 30 µM (inactive) | > 30 µM (inactive) | > 30 µM (inactive) | > 30 µM (inactive) | – | C[C@@H]1COC(Nc2ccc3ncnc(Nc4ccc(OCc5nccs5)c(Cl)c4)c3c2)=N1 [VARLITINIB]
4 | > 30 µM (inactive) | – | – | – | – | – | – | > 30 µM (inactive) | Cn1cnc2c(F)c(Nc3ccc(Br)cc3Cl)c(C(=O)NOCCO)cc21 [SELUMETINIB]
5 | > 30 µM (inactive) | 1.85 µM | > 30 µM (inactive) | > 30 µM (inactive) | > 30 µM (inactive) | > 30 µM (inactive) | > 30 µM (inactive) | – | CC(C)(O)CC(=O)NCCn1ccc2ncnc(Nc3ccc(Oc4cccc(C(F)(F)F)c4)c(Cl)c3)c21 [TAK-285]
6 | > 30 µM (inactive) | > 30 µM (inactive) | > 30 µM (inactive) | > 30 µM (inactive) | > 30 µM (inactive) | > 30 µM (inactive) | > 30 µM (inactive) | – | O[C@H]1CC[C@H](Nc2ncc3nc(Nc4c(F)cc(F)cc4F)n([C@H]4CCOC4)c3n2)CC1 [TANZISERTIB]
7 | > 30 µM (inactive) | > 30 µM (inactive) | > 30 µM (inactive) | > 30 µM (inactive) | > 30 µM (inactive) | > 30 µM (inactive) | > 30 µM (inactive) | – | Cc1cc(-c2cc(OC(=O)c3ccccc3)ccc2Cl)cc2nnc(Nc3ccc(OCCN4CCCC4)cc3)nc12 [TG100-801]
8 | > 30 µM (inactive) | > 30 µM (inactive) | > 30 µM (inactive) | > 30 µM (inactive) | > 30 µM (inactive) | > 30 µM (inactive) | > 30 µM (inactive) | – | Cc1cc(C(=O)Nc2cc(Oc3ccc4nc(NC(=O)C5CC5)cn4n3)ccc2C)n(C)n1 [TAK-593]

Continued, molecule first:

Row | Compound | Kd [1] | Kd (Ephrin type-B receptor 6) | Kd [2] | Kd [3] | Kd [4] | Kd [5] | Kd [6] | Kd [7]
9 | O=C(Nc1ccc(OC(F)(F)F)cc1)c1sccc1NCc1ccnc2ccccc12 [OSI-930] | > 30 µM (inactive) | > 30 µM (inactive) | > 30 µM (inactive) | > 30 µM (inactive) | > 30 µM (inactive) | > 30 µM (inactive) | > 30 µM (inactive) | –
10 | COc1cc2c(Oc3ccc4[nH]c(C)cc4c3F)ncnc2cc1OCCCN1CCCC1 [CEDIRANIB] | > 30 µM (inactive) | – | – | – | – | – | – | > 30 µM (inactive)
11 | N#CCNC(=O)c1ccc(-c2ccnc(Nc3ccc(N4CCOCC4)cc3)n2)cc1 [MOMELOTINIB] | > 30 µM (inactive) | > 30 µM (inactive) | – | > 30 µM (inactive) | > 30 µM (inactive) | 0.79 µM (active) | – | > 30 µM (inactive)
12 | CCN1CCN(Cc2ccc(Nc3ncc(F)c(-c4cc(F)c5nc(C)n(C(C)C)c5c4)n3)nc2)CC1 [ABEMACICLIB] | > 30 µM (inactive) | > 30 µM (inactive) | > 30 µM (inactive) | > 30 µM (inactive) | > 30 µM (inactive) | > 30 µM (inactive) | > 30 µM (inactive) | –
13 | O=c1[nH]c([C@@H]2CCCN2)nc2c1oc1ccc(Cl)cc12 | > 30 µM (inactive) | > 30 µM (inactive) | > 30 µM (inactive) | > 30 µM (inactive) | > 30 µM (inactive) | > 30 µM (inactive) | > 30 µM (inactive) | –
14 | CC[C@@](C)(Nc1ccnc(-c2c[nH]c3ncccc23)n1)C(=O)NCC(F)(F)F [DECERNOTINIB] | > 30 µM (inactive) | > 30 µM (inactive) | > 30 µM (inactive) | > 30 µM (inactive) | > 30 µM (inactive) | > 30 µM (inactive) | – | > 30 µM (inactive)
15 | CC1(C)CNc2cc(NC(=O)c3cccnc3NCc3ccncc3)ccc21 [MOTESANIB] | > 30 µM (inactive) | – | – | – | – | – | – | > 30 µM (inactive)
16 | C[C@]1(O)C[C@@H](c2nc(-c3ccc4ccc(-c5ccccc5)nc4c3)c3c(N)nccn32)C1 [LINSITINIB] | > 30 µM (inactive) | > 30 µM (inactive) | > 30 µM (inactive) | – | > 30 µM (inactive) | > 30 µM (inactive) | – | > 30 µM (inactive)
17 | O=S(=O)(c1cccc2cnccc12)N1CCCNCC1 [FASUDIL] | > 30 µM (inactive) | > 30 µM (inactive) | > 30 µM (inactive) | – | > 30 µM (inactive) | > 30 µM (inactive) | – | > 30 µM (inactive)
18 | CN(c1ncccc1CNc1nc(Nc2ccc3c(c2)CC(=O)N3)ncc1C(F)(F)F)S(C)(=O)=O [PF-00562271] | > 30 µM (inactive) | > 30 µM (inactive) | – | – | > 30 µM (inactive) | – | – | > 30 µM (inactive)
19 | C=CCN(/C=C1/C(=O)O[C@H](COC)[C@@]2(C)C1=C(O)C(=O)C1=C2[C@H](OC(C)=O)C[C@]2(C)C(=O)CC[C@@H]12)CC=C [SONOLISIB] | > 30 µM (inactive) | > 30 µM (inactive) | > 30 µM (inactive) | > 30 µM (inactive) | > 30 µM (inactive) | > 30 µM (inactive) | > 30 µM (inactive) | –
20 | COc1cccc(Nc2ncnn3ccc(CN4CC[C@@H](N)[C@H](O)C4)c23)c1 [BMS-690514] | > 30 µM (inactive) | > 30 µM (inactive) | 0.712 µM (active) | > 30 µM (inactive) | > 30 µM (inactive) | 0.048 µM (active) | > 30 µM (inactive) | –
21 | C[C@@]1(C(=O)Nc2ccc(F)nc2)CCCN1c1nc(Nc2cc(C3CC3)n[nH]2)c2cccn2n1 [BMS-754807] | > 30 µM (inactive) | – | – | – | – | – | – | > 30 µM (inactive)
22 | CCOc1ccn(-c2ccc(F)cc2)c(=O)c1C(=O)Nc1ccc(Oc2ccnc(N)c2Cl)c(F)c1 [BMS-777607] | > 30 µM (inactive) | > 30 µM (inactive) | > 30 µM (inactive) | > 30 µM (inactive) | > 30 µM (inactive) | > 30 µM (inactive) | – | > 30 µM (inactive)
23 | CNC(=O)c1ccc(Nc2ncc(C(F)(F)F)c(NCc3nccnc3N(C)S(C)(=O)=O)n2)cc1 [DEFACTINIB] | > 30 µM (inactive) | > 30 µM (inactive) | > 30 µM (inactive) | > 30 µM (inactive) | > 30 µM (inactive) | > 30 µM (inactive) | > 30 µM (inactive) | –
24 | CN(C)C/C=C/C(=O)Nc1cc2c(Nc3ccc(F)c(Cl)c3)ncnc2cc1O[C@H]1CCOC1 [AFATINIB] | > 30 µM (inactive) | – | – | – | – | – | – | > 30 µM (inactive)
25 | CN1CCN(c2nc(C3=C(c4c[nH]c5ccccc45)C(=O)NC3=O)c3ccccc3n2)CC1 [SOTRASTAURIN] | > 30 µM (inactive) | > 30 µM (inactive) | > 30 µM (inactive) | > 30 µM (inactive) | – | > 30 µM (inactive) | > 30 µM (inactive) | –
